The source of these data is patent publication US12344610B2, “APOL1 inhibitors and methods of use” (Maze Therapeutics, Inc., priority 2022, dated 2025).

Where two headings read alike, the source gives them in different places.

In this assay the test system is Trypanosoma brucei Lister 427 VSG221 with APOL1 G2 recombinant protein. The experiment in a line: APOL1 G2 trypanosome cell rescue assay (Example B5). The following applies: geometric mean of at least 2 assay runs, † = single assay run. It counts as cell-based. The method, boiled down:
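Viability read by CellTiter-Glo luminescence after 20 h co-incubation (37° C, 5% CO2) of 250 trypanosomes/well in modified HMI-9 with test compound (duplicate 11-point, 2-fold dilutions, 0.4% DMSO) and APOL1 protein, […]. Protein: mature residues 28-398, E. coli inclusion-body refolded, tag cleaved, in DDM.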

Setting [1] is: Trypanosoma brucei, 20 h, read-out: APOL1 G2 Trypanosome Rescue EC50, Trypanosoma brucei Lister 427 VSG221 with APOL1 G2 recombinant protein, 20 hours, CellTiter-Glo.
Setting [2] is: read-out: APOL1 G2 Trypanosome Rescue EC50, Trypanosoma brucei Lister 427 VSG221 with APOL1 G2 recombinant protein, 20 hours, CellTiter-Glo.

As to `CS(=O)(=O)C1(c2ccc(OCCN3CCC4(CC3)C(=O)Nc3ccc(Cl)cc34)cc2C(F)(F)F)COC1` [Compound 165, 5-chloro-1′-{2-[4-(3-methanesulfonyloxetan-3-yl)-3-(trifluoromethyl)phenoxy]ethyl}-1,2-dihydrospiro[indole-3,4′-piperidin]-2-one], under setting [1], the EC50 (usually the concentration giving half of the maximal effect) turned out to be 11.1 nM.
Still for that read-out and setting: then `CS(=O)(=O)C1(c2ccc(OCCN3CCC4(CC3)C(=O)Nc3ccc(Cl)cc34)cc2)CC1` [Compound 102, 5-chloro-1′-{2-[4-(1-methanesulfonylcyclopropyl)phenoxy]ethyl}-1,2-dihydrospiro[indole-3,4′-piperidin]-2-one], with 18 nM; and `CS(=O)(=O)c1ccc(OCCN2CCC3(CC2)C(=O)Nc2ccc(Cl)cc23)cc1C(F)(F)F` [Compound 108, 5-chloro-1′-{2-[4-methanesulfonyl-3-(trifluoromethyl)phenoxy]ethyl}-1,2-dihydrospiro[indole-3,4′-piperidin]-2-one], with 9.22 nM.
Same read-out and setting: the result for `CN1CCc2cc(OCCN3CCC4(CC3)C(=O)Nc3ccc(Cl)cc34)ccc2S1(=O)=O` [Compound 153, 6-(2-{5-chloro-2-oxo-1,2-dihydrospiro[indole-3,4′-piperidin]-1′-yl}ethoxy)-2-methyl-3,4-dihydro-2H-1λ^6,2-benzothiazine-1,1-dione] reads 25.6 nM.
In the case of `Cc1cc(OCCN2CCC3(CC2)C(=O)Nc2ccc(Cl)cc23)cnc1S(C)(=O)=O` [Compound 161, 5-chloro-1′-{2-[(6-methanesulfonyl-5-methylpyridin-3-yl)oxy]ethyl}-1,2-dihydrospiro[indole-3,4′-piperidin]-2-one], the EC50 under setting [1] was 33.3 nM.
As to `O=C1Nc2ccc(Cl)cc2C12CCN(CCOc1ccc(S(=O)(=O)C(F)F)cc1)CC2` [Compound 112, 5-chloro-1′-[2-(4-difluoromethanesulfonylphenoxy)ethyl]-1,2-dihydrospiro[indole-3,4′-piperidin]-2-one], the EC50 under setting [1] worked out at 18.3 nM.
As for `CS(=O)(=O)C1(c2ccc(OCCN3CCC4(CC3)C(=O)N(CC(F)(F)F)c3ccc(Cl)cc34)cc2)COC1` [Compound 185, 5-chloro-1′-{2-[4-(3-methanesulfonyloxetan-3-yl)phenoxy]ethyl}-1-(2,2,2-trifluoroethyl)-1,2-dihydrospiro[indole-3,4′-piperidin]-2-one], under setting [1], the EC50 was found to be 140 nM.
Turning to `CC(c1c(F)cc(OCCN2CCC3(CC2)C(=O)Nc2ccc(C#N)cc23)cc1F)S(C)(=O)=O` (single isomer, unassigned) [Compound 139, (R) or (S)-1′-{2-[3,5-difluoro-4-(1-methanesulfonylethyl)phenoxy]ethyl}-2-oxo-1,2-dihydrospiro[indole-3,4′-piperidine]-5-carbonitrile], under setting [2], the EC50 is 147 nM.
Regarding `CC(c1ccc(OCCN2CCC3(CC2)C(=O)Nc2ccc(C#N)cc23)cc1)S(C)(=O)=O` (single isomer, unassigned) [Compound 134, (S) or (R)-1′-{2-[4-(1-methanesulfonylethyl)phenoxy]ethyl}-2-oxo-1,2-dihydrospiro[indole-3,4′-piperidine]-5-carbonitrile], the EC50 under setting [1] worked out at 277 nM.
On the same count and under the same terms, the result for `CN(c1c(F)cc(OCCN2CCC3(CC2)C(=O)Nc2ccc(Cl)cc23)cc1F)S(C)(=O)=O` [Compound 127, N-[4-(2-{5-chloro-2-oxo-1,2-dihydrospiro[indole-3,4′-piperidin]-1′-yl}ethoxy)-2,6-difluorophenyl]-N-methylmethanesulfonamide] reads 29.4 nM.
`CN=S(C)(=O)c1ccc(OCCN2CCC3(CC2)C(=O)Nc2ccc(C#N)cc23)cc1` (single isomer, unassigned) [Compound 152, (R) or (S)-1′-(2-{4-[methyl(methylimino)oxo-λ^6-sulfanyl]phenoxy}ethyl)-2-oxo-1,2-dihydrospiro[indole-3,4′-piperidine]-5-carbonitrile]: the EC50 under setting [2] came out at 416 nM.
In the case of `Cn1c(=O)oc2cc(OCCN3CCC4(CC3)C(=O)Nc3ccc(Cl)cc34)ccc21` [Compound 131, 5-chloro-1′-{2-[(3-methyl-2-oxo-2,3-dihydro-1,3-benzoxazol-6-yl)oxy]ethyl}-1,2-dihydrospiro[indole-3,4′-piperidin]-2-one], under setting [1], the EC50 was 47.8 nM.
As for `CC(C)N1C(=O)Cc2cc(OCCN3CCC4(CC3)C(=O)Nc3ccc(Cl)cc34)ccc21` [Compound 145, 5-chloro-1′-(2-{[2-oxo-1-(propan-2-yl)-2,3-dihydro-1H-indol-5-yl]oxy}ethyl)-1,2-dihydrospiro[indole-3,4′-piperidin]-2-one], under setting [1], the EC50 is 35.5 nM.
The same measure, in the same setting: the result for `CC(C)n1ncc2cc(OCCN3CCC4(CC3)C(=O)Nc3ccc(Cl)cc34)ccc21` [Compound 16, 5-chloro-1′-(2-{[1-(propan-2-yl)-1H-indazol-5-yl]oxy}ethyl)-1,2-dihydrospiro[indole-3,4′-piperidin]-2-one] reads 110 nM; that for `Cc1cc(OCCN2CCC3(CC2)C(=O)Nc2ccc(C#N)cc23)ccc1S(C)(=O)=O` [Compound 111, 1′-[2-(4-methanesulfonyl-3-methylphenoxy)ethyl]-2-oxo-1,2-dihydrospiro[indole-3,4′-piperidine]-5-carbonitrile], 105 nM; that for `CN=S(C)(=O)c1ccc(OCCN2CCC3(CC2)C(=O)Nc2ccc(C#N)cc23)cc1` (single isomer, unassigned) [Compound 151, (S) or (R)-1′-(2-{4-[methyl(methylimino)oxo-λ^6-sulfanyl]phenoxy}ethyl)-2-oxo-1,2-dihydrospiro[indole-3,4′-piperidine]-5-carbonitrile], 347 nM.
`CS(=O)(=O)C1(c2ccc(OCCN3CCC4(CC3)C(=O)Nc3ccc(Cl)cc34)cc2)CCC1` [Compound 180, 5-chloro-1′-{2-[4-(1-methanesulfonylcyclobutyl)phenoxy]ethyl}-1,2-dihydrospiro[indole-3,4′-piperidin]-2-one]: the EC50 under setting [1] was 13.3 nM.
For `CC(C)(c1ccc(OCCN2CCC3(CC2)C(=O)Nc2ccc(C#N)cc23)cn1)S(C)(=O)=O` [Compound 191, 1′-(2-{[6-(2-methanesulfonylpropan-2-yl)pyridin-3-yl]oxy}ethyl)-2-oxo-1,2-dihydrospiro[indole-3,4′-piperidine]-5-carbonitrile], under setting [1], the EC50 worked out at 104 nM.
On to `Cc1cc(OCCN2CCC3(CC2)C(=O)Nc2ccc(C#N)cc23)cnc1S(C)(=O)=O` [Compound 140, 1′-{2-[(6-methanesulfonyl-5-methylpyridin-3-yl)oxy]ethyl}-2-oxo-1,2-dihydrospiro[indole-3,4′-piperidine]-5-carbonitrile], for which the half-maximal effective concentration (EC50) under setting [1] worked out at 164 nM.
For the molecule `CS(=O)(=O)c1ccc(OCCN2CCC3(CC2)C(=O)Nc2ccc(C#N)cc23)cc1C(F)F` [Compound 100, 1′-{2-[3-(difluoromethyl)-4-methanesulfonylphenoxy]ethyl}-2-oxo-1,2-dihydrospiro[indole-3,4′-piperidine]-5-carbonitrile], the EC50 under setting [1] was found to be 25.9 nM.
As for `CC1(Oc2ncc(OCCN3CCC4(CC3)C(=O)Nc3ccc(Cl)cc34)cn2)COC1` [Compound 172, 5-chloro-1′-[2-({2-[(3-methyloxetan-3-yl)oxy]pyrimidin-5-yl}oxy)ethyl]-1,2-dihydrospiro[indole-3,4′-piperidin]-2-one], the EC50 under setting [1] turned out to be 108 nM.
Same read-out and setting: the result for `CS(=O)(=O)C1(c2ccc(OCCN3CCC4(CC3)C(=O)Nc3ccc(C#N)cc34)cc2)COC1` [Compound 109, 1′-{2-[4-(3-methanesulfonyloxetan-3-yl)phenoxy]ethyl}-2-oxo-1,2-dihydrospiro[indole-3,4′-piperidine]-5-carbonitrile] reads 98 nM; that for `CC(C)(C#N)c1ccc(OCCN2CCC3(CC2)C(=O)Nc2ccc(C#N)cc23)cc1` [Compound 157, 1′-{2-[4-(1-cyano-1-methylethyl)phenoxy]ethyl}-2-oxo-1,2-dihydrospiro[indole-3,4′-piperidine]-5-carbonitrile], 45.1 nM; that for `O=C1NCC2c3ccc(OCCN4CCC5(CC4)C(=O)Nc4ccc(Cl)cc45)cc3CCN12` (single isomer, unassigned) [Compound 116, (S) or (R)-5-chloro-1′-[2-({3-oxo-1H,2H,3H,5H,6H,10bH-imidazo[4,3-a]isoquinolin-8-yl}oxy)ethyl]-1,2-dihydrospiro[indole-3,4′-piperidin]-2-one], 69.2 nM.
On the same count and under the same terms, the result for `CS(=O)(=O)C1(c2ccc(OCCN3CCC4(CC3)C(=O)Nc3ccc(C#N)cc34)cc2C(F)(F)F)COC1` [Compound 166, 1′-{2-[4-(3-methanesulfonyloxetan-3-yl)-3-(trifluoromethyl)phenoxy]ethyl}-2-oxo-1,2-dihydrospiro[indole-3,4′-piperidine]-5-carbonitrile] reads 33.8 nM; that for `CS(=O)(=O)c1ccc(OCCN2CCC3(CC2)C(=O)Nc2c(C#N)cc(Cl)cc23)cc1` [Compound 9, 5-chloro-1′-[2-(4-methanesulfonylphenoxy)ethyl]-2-oxo-1,2-dihydrospiro[indole-3,4′-piperidine]-7-carbonitrile], 1320 nM.
Still for that read-out and setting: then `CN1CCc2cc(OCCN3CCC4(CC3)C(=O)Nc3ccc(C#N)cc34)ccc2S1(=O)=O` [Compound 154, 1′-{2-[(2-methyl-1,1-dioxo-3,4-dihydro-2H-1λ^6,2-benzothiazin-6-yl)oxy]ethyl}-2-oxo-1,2-dihydrospiro[indole-3,4′-piperidine]-5-carbonitrile], with 160 nM; and `CC(C)N1C(=O)Cc2cc(OCCN3CCC4(CC3)C(=O)Nc3ccc(C#N)cc34)ccc21` [Compound 144, 2-oxo-1′-(2-{[2-oxo-1-(propan-2-yl)-2,3-dihydro-1H-indol-5-yl]oxy}ethyl)-1,2-dihydrospiro[indole-3,4′-piperidine]-5-carbonitrile], with 101 nM.
